These results are taken from ChEMBL document CHEMBL6071126, “Recent advances in the chemistry and biology of oleanolic acid and its derivatives” (Eur J Med Chem, 2024).

The nature of series [1]: Potency index, ratio of OA IC50 to test compound IC50 for anti-inflammatory activity in LPS-induced mouse BV-2 cells assessed as inhibition of NO production. The class given is functional.
A further series concerns Hathewaya histolytica. Description: Inhibition of Clostridium histolyticum Collagenase at 250 ug/ml relative to control. To be noted: dose 250.0 µg/ml.
A short description of series [2]: Inhibition of Clostridium histolyticum Collagenase using DQ gelatin as substrate measured after 30 mins by fluorescence based microplate reader analysis. Further details: species or system Hathewaya histolytica.
The next series concerns BGC-823. Description: Cytotoxicity against human BGC-823 cells assessed as reduction in cell viability incubated for 72 hrs by MTT assay. The class given is functional, cell-based. To be noted: BGC-823, 72 h. (In general: Tetrazolium assays rely on reduction of a dye to a coloured formazan, in cell work by metabolically active cells.)
The test system of the next series is PC-3. Description: Cytotoxicity against human PC-3 cells assessed as reduction in cell viability incubated for 72 hrs by MTT assay. To be noted: PC-3, 72 h. The class given is functional, cell-based.
A further series concerns MCF7. The experiment in a line: Cytotoxicity against human MCF7 cells assessed as reduction in cell viability incubated for 72 hrs by MTT assay. Particulars: MCF7, 72 h.
For another series, the system named is A549. The experiment in a line: Cytotoxicity against human A549 cells assessed as reduction in cell viability incubated for 72 hrs by MTT assay. Particulars: A549, 72 h.
Series [3] has as its system HepG2. The experiment in a line: Cytotoxicity against human HepG2 cells assessed as reduction in cell viability incubated for 72 hrs by MTT assay. Particulars: HepG2, 72 h.
Series [4] in a line: Apparent permeability across apical to basolateral side in human Caco-2 cells at 10 uM incubated for 90 mins at pH 7.4 by LC/MS analysis. The class given is ADME, cell-based. To be noted: Caco-2, pH 7.4.
The nature of series [5]: Oral bioavailability in rat. The class given is ADME, organism-based. Particulars: in vivo.
Series [6] in a line: Aqueous solubility of compound. The class given is physicochemical.
The subject of a further series is HeLa. The experiment in a line: Cytotoxicity against human HeLa cells assessed as reduction in cell viability incubated for 48 hrs by MTT assay. The class given is functional, cell-based.
The target of the next series is Alpha glucosidase (Homo sapiens, UniProt O43451+P10253+P14410+Q2M2H8). Description: Inhibition of Alpha glucosidase (unknown origin). The class given is protein assay.
The test system of series [7] is HepG2. Description: Antiproliferative activity against human HepG2 cells assessed as reduction in cell growth incubated for 72 hrs by MTT assay. To be noted: HepG2, 72 h. The class given is functional, cell-based.

In brackets after ≈: the same amount, converted by molar mass.

Consider `COC(=O)[C@]12CCC(C)(C)CC1C1=CC(=O)C3[C@@]4(C)Cc5c([nH]c6cc(F)cc(F)c56)C(C)(C)C4CC[C@@]3(C)[C@]1(C)CC2` (stereo partly specified), for which, in [1], the “Ratio IC50” value turned out to be 2.41.

`COC(=O)[C@]12CCC(C)(C)CC1C1=CC(=O)C3[C@@]4(C)Cc5c([nH]c6ccc(C#N)cc56)C(C)(C)C4CC[C@@]3(C)[C@]1(C)CC2` (stereo partly specified): the “Ratio IC50” value in series [1] was found to be 1.93.

As usually defined, the inhibition is the percentage by which the read-out fell short of the control. As a reminder, the IC50 is the point on the concentration scale where inhibition reaches its midpoint. Take `CC(C)[C@H](NC(=O)[C@H](CCCCN)NC(=O)[C@]12CCC(C)(C)CC1C1=CCC3[C@@]4(C)CC[C@H](O)C(C)(C)C4CC[C@@]3(C)[C@]1(C)CC2)C(=O)N[C@@H](CCCCN)C(=O)O` (stereo partly specified): the inhibition in the series with Hathewaya histolytica worked out at 100%. Also, in series [2], the IC50 was 48.8 µg/mL (≈ 60.1 µM).

As to `O=c1[nH]cc(F)c(=O)[nH]1` [FLUOROURACIL], the 50% inhibitory concentration (IC50) in the series on BGC-823, in the series with PC-3, in the series on MCF7, with A549 and with HepG2 [3] was < 1 µM in each case.

The term Papp A→B denotes the apparent permeability from the apical to the basolateral side of a cell layer. A word on the bioavailability: it is dose-corrected exposure relative to a reference, in per cent. A higher bioavailability goes with much systemic uptake. A word on the solubility: it is how much of the substance goes into solution per volume. High values mean a readily soluble substance, low ones a poorly soluble substance. Take `CC1(C)CC[C@]2(C(=O)O)CC[C@]3(C)C(=CC[C@@H]4[C@@]5(C)CC[C@H](O)C(C)(C)[C@@H]5CC[C@]43C)[C@@H]2C1` [OLEANOLIC_ACID]: the apical-to-basolateral permeability (Papp A→B) at 1.5 h, 10 µM in series [4] came to 1.1 ×10⁻⁶ cm/s. This compound also gave a bioavailability in series [5] of 0.7%. Moreover, the solubility in series [6] was < 1 µg/mL.

As to `CC1(C)CC[C@]2(C(=O)OCc3ccccc3Cl)CC[C@]3(C)C(=CCC4[C@@]5(C)CC[C@H](O)C(C)(C)C5CC[C@]43C)C2C1` (stereo partly specified), the IC50 in the series with HeLa was found to be 1.55 µM.

On to `Cc1ccccc1COC(=O)[C@]12CCC(C)(C)CC1C1=CCC3[C@@]4(C)CC[C@H](OC(=O)/C=C/c5ccc([N+](=O)[O-])cc5)C(C)(C)C4CC[C@@]3(C)[C@]1(C)CC2` (stereo partly specified), for which the half-maximal inhibitory concentration (IC50) with HeLa was 1.35 µM.

With `CC1(C)CC[C@]2(C(=O)C(=O)O)CC[C@]3(C)C(=CCC4[C@@]5(C)Cc6cnn(-c7ccc(Cl)cc7)c6C(C)(C)C5CC[C@]43C)C2C1` (stereo partly specified), the IC50 against Alpha glucosidase amounted to 2.64 µM.

Regarding `CON(C[C@]12CCC(C)(C)CC1C1=CCC3[C@@]4(C)CC[C@H](O)C(C)(C)C4CC[C@@]3(C)[C@]1(C)CC2)[C@@H]1O[C@H](CO)[C@@H](O)[C@H](O)[C@H]1O` (stereo partly specified), in the series with HepG2 [7], the IC50 was found to be 2.1 µM.
